Reference: patent US6441023B1 (American Home Products Corporation, priority 1997, dated 2002)

How the values were obtained:
Type in all cases: biochemical
MMP 9 = molecular target: T1, MMP 9 (Homo sapiens, UniProt P14780); assay: In vitro gelatinase assay (human neutrophil gelatinase B); conditions: for IC50: read-out: MMP 9 IC 50
T1 construct: from tissue; host or cells: human neutrophils
Description: The assay is based on the cleavage of the thiopeptide substrate ((Ac-Pro-Leu-Gly(2 mercapto-4 methyl-pentanoyl)-Leu-Gly-OEt), Bachem Bioscience) by the enzyme, gelatinase, releasing the substrate product which reacts calorimetrically with DTNB ((5,5′-dithio-bis(2-nitro-benzoic acid)). The enzyme activity is measured by the rate of the color increase.
The thiopeptide substrate is made up fresh as a 20 mM stock in 100% DMSO and the DTNB is dissolved in 100% DMSO as a 100 mM stock and stored in dark at room temperature. Both the substrate and DTNB are diluted together to 1 mM with substrate buffer (50 mM HEPES pH 7.5, 5 mM CaCl2) before use. The stock of human neutrophil gelatinase B is diluted with assay buffer (50 mnM HEPES pH 7.5, 5 mM CaCl2, 0.02% Brij) to a final concentration of 0.15 mnM.
The increase in OD405 is plotted and the slope of the line is calculated which represents the reaction rate.

TACE = molecular target: T2, TACE (Homo sapiens, UniProt P78536); assay: Procedure for measuring TACE inhibition; design: TACE % inhibition: dose or concentration left out as unconfirmed; conditions: for IC50: read-out: TACE IC 50
T2 construct: purchased Immunex
Description: Using 96-well black microtiter plates, each well receives a solution composed of 10 μL TACE (Inmunex, final concentration 1 μg/mL), 70 μL Tris buffer, pH 7.4 containing 10% glycerol (final concentration 10 mM), and 10 μL of test compound solution in DMSO ([…], DMSO concentration <1%) and incubated for 10 minutes at room temperature. The reaction is initiated by addition of a fluorescent peptidyl substrate (final concentration 100 μM to each well and then shaking on a shaker for 5 sec.
The reaction is read (excitation 340 nm, emission 420 nm) for 10 min. and the increase in fluorescence over time is plotted as a linear line. The slope of the line is calculated and represents the reaction rate.
The mean (xtsem) of the control rate is calculated and compared for statistical significance (p<0.05) with drug-treated rates using Dunnett's multiple comparison test.

MMP 13 = MMP 13 (Homo sapiens, UniProt P45452); assay: MMP 13 inhibition (manual); conditions: for IC50: read-out: MMP 13 IC 50
MMP 1 = molecular target: T3, MMP 1 (Homo sapiens, UniProt P03956); assay: In vitro collagenase assay (human recombinant fibroblast collagenase); conditions: for IC50: read-out: MMP 1 IC 50
T3 construct: human recombinant fibroblast collagenase (truncated, mw=18,828, WAR, Radnor)
T3 sequence (P03956 100-269 limits assumed): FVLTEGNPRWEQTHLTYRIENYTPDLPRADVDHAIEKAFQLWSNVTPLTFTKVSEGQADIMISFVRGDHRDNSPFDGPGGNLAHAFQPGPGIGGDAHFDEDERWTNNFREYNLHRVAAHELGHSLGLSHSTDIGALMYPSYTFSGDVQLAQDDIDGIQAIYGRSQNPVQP
Description: The assay is based on the cleavage of a peptide substrate ((Dnp-Pro-Cha-Gly-Cys(iNe)-His-Ala-Lys(NMa)-NH2), Peptide International, Inc.) by collag,enase releasing the fluorescent NMa group which is quantitated on the fluorometer. Dnp quenches the NiIa fluorescence in the intact substrate. […] Substrate is dissolved in methanol and stored frozen in 1 mM aliquots. Collagenase is stored frozen in buffer in 25 µM aliquots. For the assay, substrate is dissolved in HCBC buffer to a final concentration of 10 μM and collagenase to a final concentration of 5 nM. Compounds are dissolved in methanol, DMSO, or HCBC. The methanol and DMSO are diluted in HCBC to <1.0%. Compounds are added to the 96 well plate containing enzyme and the reaction is started by the addition of substrate.
The slope of the line is calculated and represents the reaction rate.
The mean (x±sem) of the control rate is calculated and compared for statistical significance (p<0.05) with drug-treated rates using Dunnett's multiple comparison test.

T1 sequence (P14780 94-707): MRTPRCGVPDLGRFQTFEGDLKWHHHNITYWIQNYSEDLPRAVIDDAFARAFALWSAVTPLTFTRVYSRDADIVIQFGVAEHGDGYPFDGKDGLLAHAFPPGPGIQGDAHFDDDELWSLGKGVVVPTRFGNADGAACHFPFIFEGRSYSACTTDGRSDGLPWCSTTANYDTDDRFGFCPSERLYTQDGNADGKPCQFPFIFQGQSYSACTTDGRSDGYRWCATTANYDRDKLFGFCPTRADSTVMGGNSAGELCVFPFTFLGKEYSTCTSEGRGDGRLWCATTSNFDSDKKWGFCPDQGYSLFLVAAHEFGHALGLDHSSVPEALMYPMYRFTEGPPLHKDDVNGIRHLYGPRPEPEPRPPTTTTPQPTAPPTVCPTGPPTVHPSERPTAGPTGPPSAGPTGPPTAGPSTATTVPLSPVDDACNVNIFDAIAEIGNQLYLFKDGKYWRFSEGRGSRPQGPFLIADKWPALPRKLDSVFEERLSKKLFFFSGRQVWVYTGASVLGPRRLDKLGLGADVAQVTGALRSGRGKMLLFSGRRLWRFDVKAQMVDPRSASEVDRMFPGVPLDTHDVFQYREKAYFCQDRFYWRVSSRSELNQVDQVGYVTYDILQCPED
T2 sequence (P78536 215-824): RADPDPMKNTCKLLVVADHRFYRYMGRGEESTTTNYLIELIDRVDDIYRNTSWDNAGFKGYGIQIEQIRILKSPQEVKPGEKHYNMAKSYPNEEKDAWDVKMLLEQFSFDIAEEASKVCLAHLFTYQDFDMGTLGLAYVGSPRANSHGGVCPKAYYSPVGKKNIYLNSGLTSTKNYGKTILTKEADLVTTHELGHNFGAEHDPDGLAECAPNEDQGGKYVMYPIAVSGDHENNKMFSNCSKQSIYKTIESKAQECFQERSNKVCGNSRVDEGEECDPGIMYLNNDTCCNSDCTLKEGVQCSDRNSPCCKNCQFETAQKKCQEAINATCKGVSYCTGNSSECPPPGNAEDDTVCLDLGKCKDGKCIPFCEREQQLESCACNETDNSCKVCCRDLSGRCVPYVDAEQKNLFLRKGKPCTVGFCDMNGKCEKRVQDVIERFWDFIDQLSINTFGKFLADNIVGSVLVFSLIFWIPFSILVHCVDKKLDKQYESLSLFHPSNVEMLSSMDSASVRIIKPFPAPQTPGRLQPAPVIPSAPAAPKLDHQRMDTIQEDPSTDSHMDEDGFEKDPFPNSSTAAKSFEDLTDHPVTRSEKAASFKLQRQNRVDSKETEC

Compound	IC50 (MMP 9) [nM]	IC50 (TACE) [nM]	TACE % inhibition at 1 micromolar (TACE) [%]	other results
1-(Bromo-benzyl)-4-(4-methoxy-benzenesulfonyl)-piperidine-4-carboxylic acid hydroxyamide [Example 90]	10.3	71.9		
2-(4-Fluoro-benzenesulfonyl)-2-but-2-ynyl-hexynoic acid hydroxyamide [Example 78]	560		24.58	IC50 (MMP 13): 34 nM
2-[8-(1-carboxy-ethanesulfonyl)-octane-1-sulfonyl]-propionic acid hydroxyamide [Example 49]				MMP 9 % inhibition at 1 micromolar (MMP 9; 1 micromolar): 23.7%; MMP 13 % inhibition at 1 micromolar (MMP 13; 1 micromolar): 54.6%; MMP 1 % inhibition at 1 micromolar (MMP 1; 1 micromolar): 10.1%
5-Methyl-2-(3-methyl-but-2-enyl)-2-(toluene-4-sulfonyl)-hexenoic acid hydroxyamide [Example 42]	50.9	36.5		IC50 (MMP 13): 6.2 nM
COc1ccc(SC(C)(Cc2ccccc2)C(=O)NO)cc1 (centres unmarked) [Example 1, N-Hydroxy-2-(4-methoxy-phenylsulfanyl)-2-methyl-3-phenyl-propionamnide]	560		31.62	IC50 (MMP 13): 193 nM
COc1ccc([S+]([O-])C(C)(Cc2ccccc2)C(=O)NO)cc1 (centres unmarked) [Example 5, N-Hydroxy-2-(4-methoxy-benzenesulfmyl)-2-methyl-3-phenyl-propionamide]			25	
COc1ccc(S(=O)(=O)C(Cc2ccccc2)C(=O)NO)cc1 (centres unmarked) [Example 9, N-Hydroxy-2-(4-methoxy-benzenesulfonyl)-3-phenyl-propionarmide]			20.30	
COc1ccc(S(=O)(=O)C(C)(Cc2ccc(OCCN(C(C)C)C(C)C)cc2)C(=O)NO)cc1 (centres unmarked) [Example 20, N-Hydroxy-2-(4-methoxy-benzenesulfonyl)-2-methy-3-[4-(2-N,N-diisopropylamino-ethoxy)-phenyl]-propionamide]			31	
COc1ccc(S(=O)(=O)C(C)(Cc2ccc(OCCCN3CCN(c4cccc(Cl)c4)CC3)cc2)C(=O)NO)cc1 (centres unmarked) [Example 23, 3-(4-{3-[4-(3-Chloro-phenyl)-piperain-1-yl]-propoxy}-phenyl)-N-hydroxy-2-(4-methoxy-benzenesulfonyl)-2-methyl-propionamide]			40.6	
COc1ccc(S(=O)(=O)C(C)(Cc2cccc(OCCN3CCOCC3)c2)C(=O)NO)cc1 (centres unmarked) [Example 30, N-Hydroxy-2-(4-methoxy-benzenesulfonyl)-2-methyl-3-[3-(2-morpholin-1-yl-ethoxy)-phenyl]-propionamide]			25.2	
COc1ccc(S(=O)(=O)C(CCCCOc2ccccc2)(Cc2cccnc2)C(=O)NO)cc1 (centres unmarked) [Example 68, 2-(4-Methoxy-benzenesulfonyl)-6-phenoxy-2-pyridin-3-yhnethyl-hexanoic acid hydroxyamide]	29	522		IC50 (MMP 13): 27 nM
CCCCCC#CCC(CC#CCCCCC)(C(=O)NO)S(=O)(=O)c1ccc(OC)cc1 [Example 71, 2-(4-methoxy-benzenesulfonyl)-2-oct-2-ynyl-decffynoic acid hydroxyamide]			42.21	
CC#CCC(CC#CC)(C(=O)NO)S(=O)(=O)c1ccc(OC)cc1 [Example 72, 2-(4-Methoxy-benzenesulfonyl)-2-but-2-ynyl-hextynoic acid hydroxyamide]			51.64	
C#CCC(CC#C)(C(=O)NO)S(=O)(=O)c1ccc(OC)cc1 [Example 73, 2-(4-Methoxy-benzenesulfonyl)-2-prop-2-ynyl-pentynoic acid hydroxyamde]			20.17	
COc1ccc(S(=O)(=O)C(CC=C(C)C)(CC=C(C)C)C(=O)NO)cc1 [Example 79, 2-(4-Methoxy-benzenesulfonyl)-5-methyl-2-(3-methyl-but-2-enyl)-hexenoic acid hydroxyamide]	0.54	805		IC50 (MMP 1): 25 nM
COc1ccc(S(=O)(=O)C2(C(=O)NO)CCN(CCCOc3ccccc3)CC2)cc1 [Example 105, 4-(4-Methoxy-benzenesulfony)-1-(3-phenoxy-propyl)-pipendine-4-carboxyllc acid hydroxyamide]			50.2	
CCCCCCC(Sc1cccc(C(=O)NO)c1)C(=O)NO (centres unmarked) [Example 184]				TACE % inhibition (TACE): 24.8%
CCCCCCC(C(=O)NO)[S+]([O-])c1cccc(C(=O)NO)c1 (centres unmarked) [Example 188, 3-(1-Hydroxycarbamoyl-heptylsulfmyl)-benzoicacid hydroxyamide]				TACE % inhibition at 1 µM (TACE): 16.2%
CCCCOc1ccc(S(=O)(=O)C2(C(=O)NO)CCN(Cc3ccc(OCCN4CCCCC4)cc3)CC2)cc1 [Example 242, 4-(4-Butoxy-benzenesulfonyl)-1-[4-(2-piperidin-1-yl-ethoxy)-benzyl]-piperidine-4-carboxylic acid hydroxyamide]	2	581		IC50 (MMP 1): 1950 nM
CCCCOc1ccc(S(=O)(=O)C2(C(=O)NO)CCN(Cc3cccc(OCCN4CCOCC4)c3)CC2)cc1 [Example 243, 4(4-Butoxy-benzenesulfonyl)-1-[3-(2-morpholinyl-1-ylthoxy)-benzyl]-piperidine-4-carboxylic acid hydroxyamide]		506		IC50 (MMP 1): 2180 nM
CN1CCC(C(=O)NO)(S(=O)(=O)c2ccc(Oc3ccc(Cl)cc3)cc2)CC1 [Example 249, 4-[4-(4-chloro-phenoxy)-benzenesulfonyl]1-methyl-piperidine-4-carboxylic acid hydroxyamide]	2	270		IC50 (MMP 13): 1.6 nM
O=C(NO)C1(S(=O)(=O)c2ccc(Oc3ccc(Cl)cc3)cc2)CCN(Cc2ccccc2)CC1 [Example 252, 1-Benzyl-4-[4-(4-chloro-phenoxy)-benzenesulfonyl]-piperidine-4-carboxylic acid hydroxyamide]	1.1			IC50 (MMP 13): 0.9 nM; IC50 (MMP 1): 801 nM
CC(C)CCOc1ccc(S(=O)(=O)C2(C(=O)NO)CCN(Cc3ccccc3)CC2)cc1 [Example 255, 1-Benzyl-4-[4-(3-methyl-butoxy)-benzenesulfonyl]-piperidine-4-carboxylic acid hydroxyamide]		565		IC50 (MMP 13): 1.5 nM
CCCCOc1ccc(S(=O)(=O)C2(C(=O)NO)CCN(Cc3cccc(OC)c3)CC2)cc1 [Example 260, 4-(4-butoxy-benzenesulfonyl)-1-(3-methoxy-benzyl)-piperidine-4-carboxylic acid hydroxyamide]	2.9	272		IC50 (MMP 1): 1490 nM
COc1ccc(S(=O)(=O)C2(C(=O)NO)CCN(Cc3ccc(-c4cccs4)cc3)CC2)cc1 [Example 261, 4-(4-Methoxy-benzenesulfonyl)-1-(thiophen-2-yl-benzyl)-piperidine-4-carboxylic acid hydroxyamide]	10.9			IC50 (MMP 1): 513 nM
COc1ccc(S(=O)(=O)C2(C(=O)NO)CCN(Cc3ccc(-c4ccccn4)cc3)CC2)cc1 [Example 262, 4-(4-methoxy-benzenesulfonyl)-1-(4-pyridin-2-yl-benzyl)-piperidine-4-carboxylic acid hydroxyamide]	6.1	298		IC50 (MMP 1): 422 nM
Cc1ccc(CN2CCC(C(=O)NO)(S(=O)(=O)c3ccc(OCc4ccc(Cl)cc4)cc3)CC2)cc1 [Example 266, [4-(4-Chloro-benzyloxy)-benzenesulfonyl]-1-(4-methylbenzyl)-piperidine-4-carboxylic acid hydroxamide]	6	421		IC50 (MMP 13): 5.7 nM
(1-Hydroxycarbamoyl-propane-1 -sulfanyl)-propionic acid hydroxyamide [Example 122]				TACE % inhibition at 1 µM (TACE): 3.1%
